The results in this text go back to patent US4737494A, “1,3-dithiole derivatives and pharmaceutical compositions” (priority 1984, dated 1988).

Structures are written as SMILES.

What all share (type): in vivo, mice (ddY, male)
For data set [1], the system named is acute liver injury induced by carbon tetrachloride. As to the kind of experiment: Protective effect on acute liver injury induced by carbon tetrachloride (mice, oral): plasma GPT activity and BSP retention. As to conditions: 6 h before CCl4 (0.05 ml/kg p.o.); for GPT activity: plasma; for Retained BSP: plasma 30 min after BSP 75 mg/kg i.v. As for the experimental part: 1. Protective Effect on Acute Liver Injury Induced by Carbon Tetrachloride
A test compound was dissolved or suspended in olive oil and administered orally to mice (ddY mice, .male., 23±2 g, n=5). After 6 hours, carbon tetrachloride (0.05 ml/kg) was administered orally. 24 Hours after the administration of carbon tetrachloride, BSP (sodium sulfobromophthalein; 75 mg/kg) was administered intravenously. Thirty minutes later, the cardiac blood was collected, and GPT (glutamic-pyruvic transaminase) activity and the retention rate of BSP in the plasma were measured.

In data set [2] the test system is mice. The data set can be described thus: Acute toxicity test (oral, mortality 1 week after administration). As for the experimental part: (§1) A test compound was suspended in olive oil and administered orally to mice (ddY mice,.male., 23±2 g, n=5 or 6). The actute toxicity value (LD50) was determined from the mortality 1 week after the administration.
Test in data set [3]: as above
As to conditions: mouse, in vivo, mice, in olive oil. On the procedure:
as §1

As usually defined, the LD50 is the dose at which mortality reaches 50%. A lower LD50 goes with a more toxic substance. In the case of `CCOC(=O)C1CCC[N+]1=c1sccs1.[O-][Cl+3]([O-])([O-])[O-]` (stereo not drawn) [Compound No. 41, 1-(1,3-dithiol-2-ylidene)-2-ethoxycarbonyl pyrrolidinium perchlorate], in data set [1] (1 mg/kg), the GPT activity is 405 ± 73 Karmen units and the “Retained BSP” value turned out to be 26.5 ± 3.1 µg/mL. For the same compound, in data set [1] (5 mg/kg), the GPT activity is listed as 165 ± 21 Karmen units and the “Retained BSP” value was 17.9 ± 2.0 µg/mL. The “acute toxicity (in words)” value in data set [2] is on record as “extremely low toxicity”. For the same compound, the LD50 at 168 h in data set [3] was at least 1500 mg/kg.
Consider `CCOC(=O)C[N+](C)=c1sccs1.[Cl-]` [Compound No. 2, N-(1,3-dithiol-2-ylidene)-N-methyl-N-ethoxycarbonylmethylammonium chloride], for which, in data set [1] (1 mg/kg), the GPT activity is 3190 ± 412 Karmen units and the “Retained BSP” value was 57.4 ± 12.3 µg/mL. For the same compound, in data set [1] (5 mg/kg), the GPT activity came out at 192 ± 84 Karmen units and the “Retained BSP” value amounted to 17.1 ± 1.4 µg/mL. For the same compound, the “acute toxicity (in words)” value in data set [2] is recorded as “extremely low toxicity”. For the same compound, in data set [3], the LD50 at 168 h is at least 1500 mg/kg.
In the case of `CCOC(=O)C1CC[N+](=c2sccs2)CC1.[O-][Cl+3]([O-])([O-])[O-]` (stereo not drawn) [Compound No. 56, 1-(1,3-dithiol-2-ylidene)-4-ethoxycarbonylpiperidinium perchlorate], the figures for the GPT activity in data set [1] (1 mg/kg) and in data set [1] (5 mg/kg) were 2713 ± 147 Karmen units and 216 ± 32 Karmen units, respectively. Also, the “Retained BSP” value in data set [1] (1 mg/kg) was found to be 76.6 ± 13.1 µg/mL; in data set [1] (5 mg/kg), 21.0 ± 13.4 µg/mL. Besides, the “acute toxicity (in words)” value in data set [2] is recorded as “extremely low toxicity”. The LD50 at 168 h in data set [3] is at least 1500 mg/kg.
For the compound `CN1CC[N+](=c2sccs2)CC1.[O-][Cl+3]([O-])([O-])[O-]` [Compound No. 31, 1-(1,3-dithiol-2-ylidene)-4-methylpiperazinium perchlorate], the GPT activity came out at 523 ± 111 Karmen units in data set [1] (1 mg/kg) and 148 ± 51 Karmen units in data set [1] (5 mg/kg). Besides, the “Retained BSP” value stood at 20.3 ± 3.4 µg/mL in data set [1] (1 mg/kg) and 12.6 ± 0.6 µg/mL in data set [1] (5 mg/kg). The “acute toxicity (in words)” value in data set [2] was “extremely low toxicity”. The LD50 at 168 h in data set [3] is at least 1500 mg/kg.
For the compound `CCOC(=O)C1CCC[N+](=c2sccs2)C1.[I-]` (stereo not drawn) [Compound No. 55, 1-(1,3-dithiol-2-ylidene)-3-ethoxycarbonylpiperidinium iodide], in data set [1] (1 mg/kg), the GPT activity was 2981 ± 169 Karmen units and the “Retained BSP” value was 83.9 ± 14.1 µg/mL. Besides, in data set [1] (5 mg/kg), the GPT activity was found to be 361 ± 49 Karmen units and the “Retained BSP” value was found to be 18.3 ± 4.4 µg/mL. Moreover, the “acute toxicity (in words)” value in data set [2] is given as “extremely low toxicity”. In data set [3], this compound returned an LD50 at 168 h of at least 1500 mg/kg.
As for `CC1CC(C)C[N+](=c2sccs2)C1.[I-]` (stereo not drawn) [Compound No. 67, 1-(1,3-dithiol-2-ylidene)-3,5-dimethylpiperidinium iodide], in data set [1] (1 mg/kg), the GPT activity worked out at 2718 ± 431 Karmen units and the “Retained BSP” value turned out to be 111.4 ± 17.1 µg/mL. Further, in data set [1] (5 mg/kg), the GPT activity came out at 372 ± 27 Karmen units and the “Retained BSP” value came to 21.3 ± 4.0 µg/mL.
For `CC1CCC[N+](=c2sccs2)C1.[O-][Cl+3]([O-])([O-])[O-]` (stereo not drawn) [Compound No. 52, 1-(1,3-dithiol-2-ylidene)-3-methylpiperidinium perchlorate], in data set [1] (1 mg/kg), the GPT activity is 2391 ± 325 Karmen units and the “Retained BSP” value was 87.1 ± 13.4 µg/mL. In addition, in data set [1] (5 mg/kg), the GPT activity worked out at 138 ± 18 Karmen units and the “Retained BSP” value is 17.8 ± 4.9 µg/mL.
For `CCOC(=O)C[N+](C)=c1sccs1.[O-][Cl+3]([O-])([O-])[O-]` [Compound No. 1, N-(1,3-dithiol-2-ylidene)-N-methyl-N-ethoxycarbonylmethylammonium perchlorate], in that order: 3280 ± 399 Karmen units, 53.2 ± 11.4 µg/mL, 183 ± 74 Karmen units and 18.4 ± 1.3 µg/mL.
